# Assays:
# [1] = test system: PC3 prostate cell line; assay: Sensitivity of PC3 prostate cell line; format: cell-based
# [2] = test system: polynucleotide expression in breast cell lines; assay: Drug treatment study with expression profiling in 11 breast cell lines; format: cell-based, human; settings: 0.4 μM BMS-A, 24 hours; only in sensitive breast cell lines
# Description: Eleven breast cell lines (5 sensitive and 6 resistant cell lines as indicated in bold in the Table 1) were used in a drug treatment study. Cells were treated with or without the BMS-A compound (0.4 μM) in 0.1% DMSO for 24 hours. Expression profiling was performed, the polynucleotide expression of a cell line treated with drug was compared pair-wisely to the polynucleotide expression of the same cell line without drug treatment. […]
# Cells were treated with or without the BMS-A compound (0.4 μM) in 0.1% DMSO for 24 hours. Expression profiling was performed, and the data were analyzed using GeneChip® Expression Analysis software MAS 5.0 (Affymetrix, Santa Clara, Calif.). […] A change in p-value was calculated, indicating an increase, decrease or no change in polynucleotide expression. […]
# The breast cells were grown under standard cell culture conditions: RPMI 1640 supplemented to contain 10% fetal bovine serum, 100 IU/ml penicillin, […], 2 mM L-glutamine and 10 mM Hepes (all from GibcoBRL, Rockville, Md.). […] The quality of the RNA was assessed by measuring the 28s:18s ribosomal RNA ratio using an Agilent 2100 bioanalyzer (Agilent Technologies, Rockville, Md.). The concentration of total RNA was determined spectrophotometrically. […]
# [3] = test system: caveolin-2 expression in PC3 prostate cell line; assay: Polynucleotide expression after drug treatment in PC3; format: cell-based; settings: 0.025, 0.1 and 0.4 μM BMS-A for 4 or 24 hours
# Description: (§1) Cells are treated without or with 0.025 μM, 0.1 μM and 0.4 μM of the BMS-A compound for 4 hours or 24 hours. The relative polynucleotide expression level of treated cells is compared to the corresponding untreated control which is set to 1. Drug concentrations and time of treatment are indicated.
# [4] = test system: EphA2 expression in PC3 prostate cell line; assay: as above; format: cell-based; settings: 0.025, 0.1 and 0.4 μM BMS-A for 4 or 24 hours
# Description: as §1
smiles,measurement,setting,value
Cc1nc(Nc2ncc(C(=O)Nc3c(C)cccc3Cl)s2)cc(N2CCN(CCO)CC2)n1 [BMS-A],sensitivity of PC3 prostate cell line to BMS-A,[1],very sensitive
same,EphA2 polynucleotide expression,[2],down regulated
same,caveolin-2 polynucleotide expression,[2],down regulated
same,caveolin-2 polynucleotide expression compared to the untreated control,[3],dose and time dependent polynucleotide expression decrease
same,EphA2 polynucleotide expression compared to the untreated control,[4],dose and time dependent polynucleotide expression decrease

# Reference: patent publication US7537891B2, “Identification of polynucleotides for predicting activity of compounds that interact with and/or modulate protein tyrosine kinases and/or protein tyrosine kinase pathways in breast cells” (Bristol-Myers Squibb Company, priority 2002, dated 2009)
